According to patent US20250026765A1, “SPIROHETEROCYCLE DERIVATIVE HAVING SEROTONIN RECEPTOR BINDING ACTIVITY” (Shionogi & Co., Ltd., priority 2021, published 2025):
Like-named read-outs stand apart in the source and are kept apart here.

What was measured:
[1] = target: human recombinant 5-HT2A receptor (Homo sapiens (Human), UniProt P28223); experiment: 5-HT2A receptor binding inhibition test ([3H]-Ketanserin); settings: Jump-In HEK cell membrane, 25° C. 1.5 hours
Summary of the method: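 Membranes from Jump-In HEK cells expressing the receptor were incubated with [3H]-ketanserin at about its Kd (from Scatchard analysis) in Tris-HCl pH 7.4 buffer for 1.5 h at 25° C, then filtered and counted. Non-specific binding was defined with 500 μmol/L serotonin, and Ki was taken from dose-response curves.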

[2] = target: CYP3A4 (Homo sapiens (Human), UniProt P08684); experiment: CYP3A4 (MDZ) MBI test; format: in vitro ADME; settings: pooled human liver microsomes, midazolam 1-hydroxylation, pre-reaction 0 or 30 minutes
Experimental: Test Example 8: CYP3A4 (MDZ) MBI Test
This test is a test to evaluate mechanism based inhibition (MBI) potency from enhancement of CYP3A4 inhibition of the compound of the present invention by a metabolism reaction. CYP3A4 inhibition is evaluated using pooled human liver microsomes by 1-hydroxylation reaction of midazolam (MDZ) as a marker reaction.
The reaction conditions are as follows: substrate, 10 μmol/L MDZ; pre-reaction time, 0 or 30 minutes; reaction time, 2 minutes; reaction temperature, 37° C.; pooled human liver microsomes, at pre-reaction 0.5 mg/mL, at reaction 0.05 mg/mL (at 10-fold dilution); concentrations of the compound of the present invention, 0.83, 5, 10, 20 μmol/L (four points).
Pooled human liver microsomes and a solution of the compound of the present invention in K-Pi buffer (pH 7.4) as a pre-reaction solution are added to a 96-well plate at the composition of the pre-reaction. A part of pre-reaction solution is transferred to another 96-well plate, and 1/10 diluted by K-Pi buffer containing a substrate. NADPH as a co-factor is added to initiate a reaction as a marker reaction (without preincubation). After a predetermined time of a reaction, methanol/acetonitrile=1/1 (V/V) solution is added to stop the reaction. In addition, NADPH is added to a remaining pre-reaction solution to initiate a pre-reaction (with preincubation). After a predetermined time of a pre-reaction, a part is transferred to another plate, and 1/10 diluted by K-Pi buffer containing a substrate to initiate a reaction as a marker reaction. After a predetermined time of a reaction, methanol/acetonitrile=1/1 (V/V) solution is added to stop the reaction. Each plate where the marker reaction has been performed is centrifuged at 3000 rpm for 15 minutes. Then, midazolam 1-hydroxide in the centrifuged supernatant is quantified by LC/MS/MS.
Only DMSO which is a solvent dissolving the compound of the present invention added to a reaction system is adopted as a control (100%). Remaining activity (%) is calculated at each concentration of the compound of the present invention added. IC is calculated by reverse-presumption by a logistic model using a concentration and an inhibition rate. Shifted IC value is calculated as “IC of preincubation at 0 min/IC of preincubation at 30 min”. When a shifted IC is 1.5 or more, this is defined as positive. When a shifted IC is 1.0 or less, this is defined as negative.

[3] = read-out: human serotonin 5-HT2A receptor binding activity Ki

Chain of CYP3A4 (P08684 whole entry): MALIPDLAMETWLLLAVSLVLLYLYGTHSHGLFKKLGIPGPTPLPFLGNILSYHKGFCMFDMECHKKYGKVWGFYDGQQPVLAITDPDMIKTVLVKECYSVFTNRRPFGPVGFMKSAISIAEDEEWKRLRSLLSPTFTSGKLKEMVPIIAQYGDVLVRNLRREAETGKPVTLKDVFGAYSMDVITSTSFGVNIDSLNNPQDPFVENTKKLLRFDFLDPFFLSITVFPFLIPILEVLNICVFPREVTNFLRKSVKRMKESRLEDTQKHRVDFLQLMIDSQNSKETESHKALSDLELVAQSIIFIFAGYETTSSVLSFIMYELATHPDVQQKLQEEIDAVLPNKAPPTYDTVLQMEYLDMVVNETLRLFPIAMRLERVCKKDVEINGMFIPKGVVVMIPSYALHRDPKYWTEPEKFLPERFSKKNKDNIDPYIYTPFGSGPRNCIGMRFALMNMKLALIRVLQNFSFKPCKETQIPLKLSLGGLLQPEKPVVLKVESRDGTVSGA
Chain of human recombinant 5-HT2A receptor (P28223 whole entry): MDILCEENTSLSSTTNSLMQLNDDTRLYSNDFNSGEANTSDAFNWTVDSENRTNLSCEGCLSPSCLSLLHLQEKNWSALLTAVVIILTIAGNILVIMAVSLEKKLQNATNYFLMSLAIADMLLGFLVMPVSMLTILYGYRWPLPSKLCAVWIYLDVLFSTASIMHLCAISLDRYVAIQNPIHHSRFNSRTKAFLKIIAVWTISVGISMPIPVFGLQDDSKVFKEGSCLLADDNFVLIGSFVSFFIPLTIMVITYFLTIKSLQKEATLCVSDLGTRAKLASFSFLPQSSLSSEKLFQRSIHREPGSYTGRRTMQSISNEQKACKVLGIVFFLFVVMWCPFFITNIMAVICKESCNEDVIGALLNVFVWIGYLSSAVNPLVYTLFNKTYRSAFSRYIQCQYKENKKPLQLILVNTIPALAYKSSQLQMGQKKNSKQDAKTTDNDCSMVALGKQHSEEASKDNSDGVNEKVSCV

| SMILES | Ki ([1]; read-out: h-5-HT2A Ki) | Ki [1, 3] | CYP3A4 (MDZ) MBI (shifted IC) [2] |
| --- | --- | --- | --- |
| CC(C)COc1ccc(CN(Cc2coc(CF)n2)C2=NOC3(CCN(C)CC3)N2)cc1 [Compound I-067] | < 10 nM | 1.37 nM | Negative (When a shifted IC is 1.0 or less, this is defined as negative) |
| CCCCOc1ccc(CN(Cc2coc(C)n2)C2=NOC3(CCN(C)CC3)N2)cc1 [Compound I-080] | < 10 nM | 0.823 nM | Negative (When a shifted IC is 1.0 or less, this is defined as negative) |
| Cc1nc(CN(Cc2ccc(OCC(F)(F)C(F)(F)F)cc2F)C2=NOC3(CCN(C)CC3)N2)co1 [Compound I-104] |  | 1.56 nM | Negative (When a shifted IC is 1.0 or less, this is defined as negative) |
| CCCCOc1ccc(CN(Cc2coc(CF)n2)C2=NOC3(CCN(C)CC3)N2)cc1 [Compound I-105] |  | 0.979 nM | Negative (When a shifted IC is 1.0 or less, this is defined as negative) |
| CCCCOc1ccc(CN(Cc2cnn(C)n2)C2=NOC3(CCN(C)CC3)N2)cc1 [Compound I-113] |  | 1.2 nM | Negative (When a shifted IC is 1.0 or less, this is defined as negative) |
| CCCCOc1ccc(CN(Cc2coc(C)n2)C2=NOC3(CCN(C)CC3)N2)c(F)c1 [Compound I-114] |  | 0.74 nM | Negative (When a shifted IC is 1.0 or less, this is defined as negative) |
| CCCCOc1ccc(CN(Cc2coc(C)n2)C2=NOC3(CCN(C)CC3)N2)cc1F [Compound I-115] |  | 0.703 nM | Negative (When a shifted IC is 1.0 or less, this is defined as negative) |
| Cc1nc(CN(Cc2ccc(CCC(F)(F)F)cc2)C2=NOC3(CCN(C)CC3)N2)co1 [Compound I-125] |  | 1.26 nM | Negative (When a shifted IC is 1.0 or less, this is defined as negative) |
| Cc1nc(CN(Cc2ccc(OCC(C)C)cc2F)C2=NOC3(CCN(C)CC3)N2)co1 [Compound I-128] |  | 1.36 nM | Negative (When a shifted IC is 1.0 or less, this is defined as negative) |
